Literature values in patent US20070037797A1, “Method of reducing the risk of adverse cardiovascular (CV) events associated with the administration of pharmaceutical agents which favor CV events” (priority 2005, published 2007).
Where two headings read alike, the source gives them in different places. Values belong to the compound of their own block, whether it stands above or below them.

Columns and labels:
[1] = Losartan 50 mg vs. captopril 50 mg three times daily, patients with heart failure
[2] = losartan vs. captopril
[3] = use at high frequency or dose
[4] = 10 mg dose
[5] = FDA determination
[6] = in vivo
[7] = individuals with essential hypertension
[8] = in vivo; remark: listed apart in the source
[9] = high-risk patients with diabetes mellitus, compared to placebo
[10] = 25 mg/day of rofecoxib versus placebo
[11] = versus the non-selective NSAID naproxen
[12] = not given; remark: listed apart in the source

SMILES: CCCCc1nc(Cl)c(CO)n1Cc1ccc(-c2ccccc2-c2nn[nH]n2)cc1 [Losartan]
- mortality [1]: significant reduction in mortality
- clinical endpoints [2]: no significant difference

SMILES: CC(=O)Nc1ccc(O)cc1 [acetaminophen]
- risk of adverse CV events [3]: significant increase

SMILES: CC(C)c1c(C(=O)Nc2ccccc2)c(-c2ccccc2)c(-c2ccc(F)cc2)n1CC[C@@H](O)C[C@@H](O)CC(=O)O [atorvastatin]
- reduction in LDL [4]: 39%

SMILES: Cc1ccc(-c2cc(C(F)(F)F)nn2-c2ccc(S(N)(=O)=O)cc2)cc1 [celecoxib]
- risk of adverse CV events compared to placebo [5]: increased risk of adverse CV events
- hazard for the composite endpoint of death from CV causes (200 mg twice daily compared to placebo): 2.5
- hazard for the composite endpoint of death from CV causes (400 mg twice daily compared to placebo): 3.4
- increase in adverse CV events (versus placebo after a mean duration of 33 months): 2-3 fold

SMILES: COc1ccc(OC(=O)N(CC(=O)O)Cc2ccc(OCCc3nc(-c4ccccc4)oc3C)cc2)cc1 [muraglitazar]
- risk of myocardial infarct and stroke [6]: increases the risk of myocardial infarct and stroke

- endothelial dysfunction [7]: worsening
SMILES: CCC(=O)NS(=O)(=O)c1ccc(-c2c(-c3ccccc3)noc2C)cc1 [parecoxib]

- risk of stroke [8]: increases the risk of stroke
SMILES: O=C(c1ccc(OCCN2CCCCC2)cc1)c1c(-c2ccc(O)cc2)sc2cc(O)ccc12 [raloxifene]

SMILES: CCOC(=O)[C@H](CCc1ccccc1)N[C@@H](C)C(=O)N1[C@H](C(=O)O)C[C@@H]2CCC[C@@H]21 [ramipril]
- relative risk reduction, combined primary outcome of myocardial infarction, stroke, and cardiovascular death [9]: 25%

SMILES: CS(=O)(=O)c1ccc(C2=C(c3ccccc3)C(=O)OC2)cc1 [rofecoxib]
- increase in the incidence of serious thrombotic adverse events [10]: approximately two
- increase in the incidence of myocardial infarction [11]: approximately two
- risk of adverse CV events compared to placebo [5]: increased risk of adverse CV events
- selectivity for COX-2 compared with celecoxib (COX-2 relative to COX-1): 10 times

SMILES: Cc1onc(-c2ccccc2)c1-c1ccc(S(N)(=O)=O)cc1 [valdecoxib]
- risk of adverse CV events compared to placebo [5]: increased risk of adverse CV events

SMILES: CCCCC(=O)N(Cc1ccc(-c2ccccc2-c2nnn[nH]2)cc1)[C@H](C(=O)O)C(C)C [valsartan]
- survival and rates of non-fatal CV events ([12]; patients with myocardial infarction): improved survival and reduced the rates of non-fatal CV events
- improving survival and reducing cardiovascular morbidity compared with captopril ([12]; target dose of 160 mg twice daily): as effective as the ACE inhibitor captopril
